For one assay, the system named is VCAM-1 and COX2. Kind of assay: TNF-α-induced VCAM-1 and COX2 expression in colon epithelial cells (immunoblot). The assay is classed as cell-based, mouse. The settings on record: TNF-α-treated colon epithelial cells, 5 μM. As to the method: Referring to FIG. 1, for example, colon epithelial cells were treated with TNF-α for the indicated time intervals in the presence or absence 5 μM of the PARP inhibitor AZD2281.
Cell isolation, culture, treatments, RNA extraction, cDNA synthesis and quantitative PCR—Primary CEC were isolated essentially as described (29). The mouse colon adenocarcinoma (MC-38 or CT-26), Jurkat T, RAW264.7, or 3LL lung carcinoma cell lines were purchased from Kerafast (Boston, MA) or ATCC (Manassas, VA). Mouse embryonic fibroblasts were derived from WT, PARP-1^+/−, or PARP mice using standard protocols. CEC were serum-starved overnight in 0.5% FBS prior to treatment. […] Quantitative determination of gene expression levels using a 2-step cycling protocol was conducted on a MyIQ Cycler (Bio-Rad, Hercules, CA, USA). Relative expression levels were calculated using the 2[-Delta Delta C(T)] method. Quantities of all targets were normalized to the mouse β-actin gene.
Cell fractionation, protein extraction and immunoblot analysis—Tumor tissues or cells were harvested and homogenized in RIPA lysis buffer (Santa Cruz Biotechnology) containing a cocktail of protease and phosphatase inhibitors on ice. […] Protein expression signals developed by ECL (Pierce, ThermoFisher Scientific) were determined by a G:Box Gel Image Analysis System (Syngene, Cambridge, UK) equipped with the GeneSys image capture software.
(In general: In western blotting, separated proteins are transferred to a membrane and probed.)

Assay [1] concerns steroid-resistant leukemia cells. Briefly: Steroid-resistant leukemia cells: cell killing and NOTCH levels. The class given is cell-based. The settings on record: 4 nM.
In a further assay the test system is KOPT-K1 cells. Kind of assay: KOPT-K1 cell viability (Trypan exclusion assay). The assay is classed as cell-based. As to conditions: ultra-low doses, 2.5 days. As to the method:
(§1) Cell viability was assessed 2.5 days after treatment by Trypan exclusion assay. Statistics are not included.
as §1
The ultimate goal of this therapy is maximal inhibition of PARP to achieve “synthetic lethality” taking advantage of the inability of BRCA-deficient cancer cells to repair DNA. […] This was tested in three different leukemia cell lines.

A further assay has as its system allograft breast cancer. As to conditions: 50 mg/kg daily; cited from earlier work.

The source of these data is US12121518B2, “PARP-1 and methods of use thereof” (The Board of Supervisors of Louisiana State University and …, priority 2017, dated 2024).

The structures appear in SMILES notation.

`O=C(c1cc(Cc2n[nH]c(=O)c3ccccc23)ccc1F)N1CCN(C(=O)C2CC2)CC1` [olaparib]: the “expression of inflammatory markers (VCAM-1 and COX2)” value with VCAM-1 and COX2 is reported as “inhibits the expression of inflammatory markers”. In addition, the “sensitivity of the cells to dexamethasone” value in assay [1] was “completely reversed sensitivity of the cells to dexamethasone”. In addition, the “steroid resistance (viability with dexamethasone)” value with KOPT-K1 cells is “reverse steroid resistance”. The “effect on anti-PD1 immunotherapy” value in the assay on allograft breast cancer was “enhances anti-PD1 immunotherapy”.
